Consider 23 compounds from ChEMBL document CHEMBL5375952, “Discovery of Novel 8-Hydroxyquinoline Derivatives with Potent In Vitro and In Vivo Antifungal Activity” (J Med Chem, 2023).

Holding throughout (type): functional
Assay [1] relates to Candida albicans. As to the kind of experiment: Antifungal activity against Candida albicans 22 assessed as fungal growth inhibition incubated for 48 hrs by broth microdilution method. (Dilution methods test growth across graded concentrations, often in twofold steps.)
For assay [2], the system named is Candida albicans. As to the kind of experiment: Antifungal activity against Candida albicans 21 assessed as fungal growth inhibition incubated for 48 hrs by broth microdilution method.
Assay [3] relates to Candida albicans. The experiment in a line: Antifungal activity against Candida albicans SC5314 assessed as fungal growth inhibition incubated for 48 hrs by broth microdilution method.

Values after ≈ are worked out from the molar mass of the structure shown.

`CN1CCN(C(c2ccncc2)c2ccc3cccnc3c2O)CC1` (centres undefined): the MIC in the assay with Candida albicans [1], in the assay on Candida albicans [2] and in the assay with Candida albicans [3] was 4 µg/mL (≈ 12 µM) each time.

`CCCC(=O)NC(c1cccc([N+](=O)[O-])c1)c1ccc2cccnc2c1O` (centres undefined): the MIC in the assay with Candida albicans [1], in the assay with Candida albicans [2] and in the assay with Candida albicans [3] was 1 µg/mL (≈ 2.74 µM) in each case.

Turning to `O=C(Cc1ccccc1)NC(c1ccc(Cl)cc1)c1ccc2cccnc2c1O` (centres undefined), the values for the MIC in the assay on Candida albicans [1], in the assay with Candida albicans [2] and in the assay with Candida albicans [3] were 1 µg/mL (≈ 2.48 µM), 0.25 µg/mL (≈ 0.621 µM) and 2 µg/mL (≈ 4.96 µM), respectively.

With `COc1ccccc1C(NC(=O)C(C)C)c1cc(Cl)c2cccnc2c1O` (centres undefined), the MIC was greater than 64 µg/mL in the assay with Candida albicans [1], 64 µg/mL (≈ 166 µM) in the assay with Candida albicans [2] and greater than 64 µg/mL in the assay on Candida albicans [3].

`CC(=O)NC(c1ccc(Cl)cc1Cl)c1ccc2cccnc2c1O` (centres undefined): the MIC in the assay on Candida albicans [1] was found to be 0.5 µg/mL (≈ 1.38 µM); in the assay on Candida albicans [2] it was 0.5 µg/mL (≈ 1.38 µM); in the assay on Candida albicans [3], 0.125 µg/mL (≈ 0.346 µM).

Take `CC(C)C(=O)NC(c1cccc([N+](=O)[O-])c1)c1ccc2cccnc2c1O` (centres undefined): the MIC in the assay with Candida albicans [1] came to 0.5 µg/mL (≈ 1.37 µM); in the assay with Candida albicans [2], 0.25 µg/mL (≈ 0.684 µM); in the assay on Candida albicans [3] it was 0.25 µg/mL (≈ 0.684 µM).

With `CC(C)C(=O)NC(c1ccc(Cl)c(Cl)c1)c1ccc2cccnc2c1O` (centres undefined), the MIC in the assay with Candida albicans [1] is 1 µg/mL (≈ 2.57 µM); with Candida albicans [2], 0.25 µg/mL (≈ 0.642 µM); in the assay on Candida albicans [3], 1 µg/mL (≈ 2.57 µM).

`CS(=O)(=O)c1ccc(C(NC(=O)Cc2ccccc2)c2ccc3cccnc3c2O)cc1` (centres undefined): the MIC was determined as 2 µg/mL (≈ 4.48 µM) with Candida albicans [1], 1 µg/mL (≈ 2.24 µM) in the assay on Candida albicans [2] and 2 µg/mL (≈ 4.48 µM) in the assay on Candida albicans [3].

As to `Cc1ccc(C(NC(=O)C(C)C)c2ccc3cccnc3c2O)cc1` (centres undefined), the results for the MIC with Candida albicans [1], in the assay with Candida albicans [2] and in the assay with Candida albicans [3] were 1 µg/mL (≈ 2.99 µM), 1 µg/mL (≈ 2.99 µM) and 2 µg/mL (≈ 5.98 µM), respectively.

For the compound `CC(C)C(=O)NC(c1ccc(C(F)(F)F)cc1)c1ccc2cccnc2c1O` (centres undefined), the MIC came out at 2 µg/mL (≈ 5.15 µM) in the assay on Candida albicans [1], 1 µg/mL (≈ 2.57 µM) in the assay on Candida albicans [2] and 1 µg/mL (≈ 2.57 µM) in the assay on Candida albicans [3].

Regarding `CCN(CC)c1ccc(C(NC(=O)Cc2ccccc2)c2ccc3cccnc3c2O)cc1` (centres undefined), the MIC in the assay on Candida albicans [1] turned out to be 2 µg/mL (≈ 4.55 µM); in the assay on Candida albicans [2], 1 µg/mL (≈ 2.28 µM); in the assay with Candida albicans [3], 0.5 µg/mL (≈ 1.14 µM).

Regarding `CN(C)c1ccc(C(NC(=O)Cc2ccccc2)c2ccc3cccnc3c2O)cc1` (centres undefined), the MIC with Candida albicans [1] was determined as 2 µg/mL (≈ 4.86 µM); in the assay with Candida albicans [2], 0.5 µg/mL (≈ 1.22 µM); in the assay on Candida albicans [3] it was 0.25 µg/mL (≈ 0.608 µM).

For the compound `O=C(Cc1ccccc1)NC(c1ccc(OC(F)(F)F)cc1)c1ccc2cccnc2c1O` (centres undefined), the figures for the MIC in the assay with Candida albicans [1], in the assay on Candida albicans [2] and in the assay on Candida albicans [3] were 2 µg/mL (≈ 4.42 µM), 1 µg/mL (≈ 2.21 µM) and 2 µg/mL (≈ 4.42 µM), respectively.

Turning to `CC(C)C(=O)NC(c1ccc(F)c(Cl)c1)c1ccc2cccnc2c1O` (centres undefined), the MIC with Candida albicans [1] turned out to be 0.5 µg/mL (≈ 1.34 µM); in the assay on Candida albicans [2], 0.25 µg/mL (≈ 0.671 µM); in the assay on Candida albicans [3], 0.5 µg/mL (≈ 1.34 µM).

For the compound `COc1ccc(C(NC(=O)Cc2ccccc2)c2ccc3cccnc3c2O)cc1OC` (centres undefined), the MIC in the assay on Candida albicans [1], with Candida albicans [2] and in the assay with Candida albicans [3] was 0.5 µg/mL (≈ 1.17 µM) each time.

Turning to `O=C(Cc1ccccc1)NC(c1ccc(F)c(Cl)c1)c1ccc2cccnc2c1O` (centres undefined), the values for the MIC in the assay on Candida albicans [1], in the assay with Candida albicans [2] and in the assay with Candida albicans [3] were 1 µg/mL (≈ 2.38 µM), 0.5 µg/mL (≈ 1.19 µM) and 0.5 µg/mL (≈ 1.19 µM), respectively.

Turning to `COc1ccc(C(NC(=O)C(C)C)c2ccc3cccnc3c2O)cc1` (centres undefined), the MIC is 1 µg/mL (≈ 2.85 µM) in the assay on Candida albicans [1], 0.5 µg/mL (≈ 1.43 µM) in the assay on Candida albicans [2] and 2 µg/mL (≈ 5.71 µM) with Candida albicans [3].

As to `CCCC(=O)NC(c1ccc(N(C)C)cc1)c1ccc2cccnc2c1O` (centres undefined), the MIC with Candida albicans [1] was found to be 0.5 µg/mL (≈ 1.38 µM); with Candida albicans [2], 0.25 µg/mL (≈ 0.688 µM); in the assay on Candida albicans [3] it was 0.25 µg/mL (≈ 0.688 µM).

As for `CC(C)C(=O)NC(c1ccccc1Cl)c1ccc2cccnc2c1O` (centres undefined), the minimal inhibitory concentration (MIC) with Candida albicans [1], in the assay on Candida albicans [2] and with Candida albicans [3] was 2 µg/mL (≈ 5.64 µM) each time.

Take `OCCN1CCN(C(c2ccccc2)c2ccc3cccnc3c2O)CC1` (centres undefined): the MIC with Candida albicans [1], with Candida albicans [2] and in the assay on Candida albicans [3] was 1 µg/mL (≈ 2.75 µM) each time.

As to `CC(C)C(=O)NC(c1ccc(F)cc1)c1ccc2cccnc2c1O` (centres undefined), the MIC in the assay on Candida albicans [1], in the assay with Candida albicans [2] and with Candida albicans [3] was 1 µg/mL (≈ 2.96 µM) in each case.

As to `O=C(Cc1ccccc1)NC(c1ccc(C(F)(F)F)cc1)c1ccc2cccnc2c1O` (centres undefined), the figures for the MIC in the assay on Candida albicans [1], in the assay on Candida albicans [2] and with Candida albicans [3] were 2 µg/mL (≈ 4.58 µM), 1 µg/mL (≈ 2.29 µM) and 1 µg/mL (≈ 2.29 µM), respectively.

For the compound `CC(=O)NC(c1ccccc1Cl)c1ccc2cccnc2c1O` (centres undefined), the MIC with Candida albicans [1], in the assay with Candida albicans [2] and in the assay with Candida albicans [3] was 8 µg/mL (≈ 24.5 µM) in each case.

For orientation: MIC means the lowest concentration that inhibits growth of the organism.
